Measurements reported in patent US20240342111A1, “ISOMER-SPECIFIC NEUROPROTECTIVE EFFECT OF NATURAL RESERVATROL” (priority 2021, published 2024).

Experiments:
HPF1 = assay: Immunoblot for HPF1 protein; format: cell-based, rat; details: high dose 25 μM, up to 16 hr, time-dependent
Source text: Ac-K56-H3 is a marker of genomic stability, see Driscoll, R., Hudson, A. & Jackson, S. P. Yeast Rtt109 promotes genome stability by acetylating histone H3 on lysine 56. Science 315, 649-652, doi:10.1126/science.1135862 (2007), and DNA damage, see Tjeertes, J. V., Miller, K. M. & Jackson, S. P. Screen for DNA-damage-responsive histone modifications identifies H3K9Ac and H3K56Ac in human cells. EMBO J 28, 1878-1889, doi:10.1038/emboj.2009.119 (2009), and inhibition of PARP1 causes the downregulation of RAD51, see Hegan, D. C. et al. Inhibition of poly(ADP-ribose) polymerase down-regulates BRCA1 and RAD51 in a pathway mediated by E2F4 and p130. […] The western blot images of the protein levels of HPF1 was quantified using ImageJ.
Cultured neurons (DIV 9-10) were washed once with cold 1×PBS and lysed in cell lysis buffer (20 mM Tris-HCl (pH 7.5), 150 mM NaCl, 1 mM Na2EDTA, 1 mM EGTA, 1% Triton, 2.5 mM sodium pyrophosphate, 1 mM beta-glycerophosphate, 1 mM Na3VO4, 1 μg/ml leupeptin supplemented with protease inhibitor). […] Lysates were quantified using Bio-Rad Protein Assay, and an equal amount of protein was loaded onto a 4 to 12% gradient gel (NuPAGE-Invitrogen). […] Quantification for the western blots was done using ImageJ (Version 1.53c).

Rat cortical neurons [1] = assay: DNA damage (etoposide)-induced neurotoxicity, MTT assay; format: cell-based; details: 5 μM etoposide 24 hours, pre-treatment 16 hours
Rat cortical neurons [2] = assay: trans-RSV in combination with cis-RSV, viability by MTT assay; format: cell-based; details: cis-RSV 10-50 μM in combination with trans-RSV, 48 hours
Experimental: Cell viability was assessed and quantified using MTT assay.
Rat cortical neurons (DIV 10-11) were exposed to different treatments after seeding 20,000 cells/well in 96-well plates. Cell viability was then assessed at 48 hours after the initial exposure to NMDA. 3-[4,5-dimethylthiazole-2-yl]-2,5-diphenyltetrazolium bromide (MTT) assays were used to assess change in cell viability. Cultured rat cortical neurons were incubated with MTT (0.5 mg/mL). In the MTT assay, after 2 h incubation, the insoluble purple product formazan resulting from the reduction of MTT by NAD(P)H-dependent oxidoreductases present in cells with viable mitochondria was solubilized in dimethyl sulfoxide at room temperature, under agitation, and protected from light. The percentage of MTT reduced as measured by the difference between the absorbances at 570 nm read in a spectrophotometer (Spectramax 190R Molecular Devices, UK). The percentage of reduction of MTT was calculated comparing the difference of the absorbance at 570 of each sample. Results are presented as percentage of control (wells incubated with the vehicle).

Row | SMILES | HPF1 protein levels (HPF1) | protection from DNA damage-induced neurotoxicity (Rat cortical neurons [1]) | trans-RSV-mediated neurotoxicity (Rat cortical neurons [2])
1 | Oc1ccc(/C=C/c2cc(O)cc(O)c2)cc1 [trans-RSV, trans-resveratrol] | downregulated the protein levels of the histone poly-ADP-ribosylation factor 1 (HPF1) |  | 
2 | Oc1ccc(/C=C\c2cc(O)cc(O)c2)cc1 [cis-RSV, cis-resveratrol] |  | protects neurons from DNA damage-induced neurotoxicity | rescued trans-RSV-mediated neurotoxicity
